How the values were obtained:
CDK7 CyclinH = CDK7 CyclinH (Homo sapiens, UniProt P50613); assay: Additional inhibition assay, CDK7 CyclinH; assay type: biochemical
CDK2-CYCLINA = target: T1, CDK2-CYCLINA (Homo sapiens, UniProt P24941); assay: Microfluidic LabChip kinase inhibition assay, CDK2-CyclinA; assay type: biochemical; settings: 50 μM ATP
T1 construct: purchased Millipore

CDK4-CYCLIND1 = CDK4-CYCLIND1 (Homo sapiens, UniProt P11802); assay: Microfluidic LabChip kinase inhibition assay, CDK4-CyclinD1; settings: CDK4 CyclinD1 IC50 (μM), 200 μM ATP, second value in parentheses on the next line
Chain of CDK4-CYCLIND1 (P11802 whole entry): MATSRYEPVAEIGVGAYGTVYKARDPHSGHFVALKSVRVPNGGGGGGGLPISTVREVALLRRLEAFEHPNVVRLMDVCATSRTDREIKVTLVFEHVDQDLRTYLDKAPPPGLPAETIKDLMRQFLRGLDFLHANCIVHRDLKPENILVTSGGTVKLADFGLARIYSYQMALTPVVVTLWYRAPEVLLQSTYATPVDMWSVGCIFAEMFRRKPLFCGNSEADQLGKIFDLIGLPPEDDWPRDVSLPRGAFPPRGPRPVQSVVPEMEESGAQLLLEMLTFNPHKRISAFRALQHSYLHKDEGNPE
Chain of CDK4-CYCLIND1 (P24385 whole entry partner): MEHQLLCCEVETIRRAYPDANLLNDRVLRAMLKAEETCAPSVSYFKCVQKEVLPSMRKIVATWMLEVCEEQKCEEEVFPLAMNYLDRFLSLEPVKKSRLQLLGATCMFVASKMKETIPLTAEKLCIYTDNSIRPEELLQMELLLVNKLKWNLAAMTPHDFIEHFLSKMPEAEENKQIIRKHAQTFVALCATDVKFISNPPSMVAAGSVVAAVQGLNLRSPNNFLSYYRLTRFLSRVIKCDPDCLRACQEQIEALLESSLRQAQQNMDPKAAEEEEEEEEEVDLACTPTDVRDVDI

CDK1/B = CDK1/B (Homo sapiens, UniProt P06493); assay: Additional inhibition assay, CDK1/B; assay type: biochemical
Chain of CDK1/B (P06493 whole entry): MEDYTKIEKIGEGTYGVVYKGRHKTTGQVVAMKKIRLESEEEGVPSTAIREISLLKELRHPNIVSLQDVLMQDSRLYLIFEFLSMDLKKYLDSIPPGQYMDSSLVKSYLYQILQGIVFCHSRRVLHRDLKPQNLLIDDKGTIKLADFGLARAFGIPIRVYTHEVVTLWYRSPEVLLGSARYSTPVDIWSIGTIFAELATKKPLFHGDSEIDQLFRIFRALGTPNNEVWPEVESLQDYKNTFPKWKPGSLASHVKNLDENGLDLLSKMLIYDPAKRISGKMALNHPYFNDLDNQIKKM
Chain of CDK1/B (P14635 whole entry partner): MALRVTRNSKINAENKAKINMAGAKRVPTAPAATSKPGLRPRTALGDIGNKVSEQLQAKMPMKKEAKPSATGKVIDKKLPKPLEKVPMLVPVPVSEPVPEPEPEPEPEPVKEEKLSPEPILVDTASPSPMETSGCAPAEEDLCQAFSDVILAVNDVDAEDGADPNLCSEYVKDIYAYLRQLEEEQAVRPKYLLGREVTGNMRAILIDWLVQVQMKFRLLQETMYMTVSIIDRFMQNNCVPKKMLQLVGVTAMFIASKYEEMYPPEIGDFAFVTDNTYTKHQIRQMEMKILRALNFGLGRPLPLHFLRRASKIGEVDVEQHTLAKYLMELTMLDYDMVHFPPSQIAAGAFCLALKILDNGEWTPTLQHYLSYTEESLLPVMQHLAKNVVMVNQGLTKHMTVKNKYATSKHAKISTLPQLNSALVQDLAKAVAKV

CDK9-CYCLINT1 = target: T2, CDK9-CYCLINT1 (Homo sapiens, UniProt P50750); assay: Microfluidic LabChip kinase inhibition assay, CDK9-CyclinT1; assay type: biochemical; settings: Table 3a; 10 μM ATP; read-out: CDK9 CyclinT1 IC50
T2 construct: purchased Carna
T2 sequence (P50750 whole entry): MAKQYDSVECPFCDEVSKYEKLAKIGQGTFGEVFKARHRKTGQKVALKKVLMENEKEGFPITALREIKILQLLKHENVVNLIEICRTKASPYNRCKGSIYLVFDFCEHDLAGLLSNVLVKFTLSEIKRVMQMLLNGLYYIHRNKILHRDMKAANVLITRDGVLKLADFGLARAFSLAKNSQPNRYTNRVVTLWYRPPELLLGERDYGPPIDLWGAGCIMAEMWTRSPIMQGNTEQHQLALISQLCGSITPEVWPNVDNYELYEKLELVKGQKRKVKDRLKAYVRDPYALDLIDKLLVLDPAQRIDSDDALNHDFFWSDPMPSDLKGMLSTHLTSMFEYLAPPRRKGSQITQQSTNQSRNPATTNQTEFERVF
T2 sequence (O60563 whole entry partner): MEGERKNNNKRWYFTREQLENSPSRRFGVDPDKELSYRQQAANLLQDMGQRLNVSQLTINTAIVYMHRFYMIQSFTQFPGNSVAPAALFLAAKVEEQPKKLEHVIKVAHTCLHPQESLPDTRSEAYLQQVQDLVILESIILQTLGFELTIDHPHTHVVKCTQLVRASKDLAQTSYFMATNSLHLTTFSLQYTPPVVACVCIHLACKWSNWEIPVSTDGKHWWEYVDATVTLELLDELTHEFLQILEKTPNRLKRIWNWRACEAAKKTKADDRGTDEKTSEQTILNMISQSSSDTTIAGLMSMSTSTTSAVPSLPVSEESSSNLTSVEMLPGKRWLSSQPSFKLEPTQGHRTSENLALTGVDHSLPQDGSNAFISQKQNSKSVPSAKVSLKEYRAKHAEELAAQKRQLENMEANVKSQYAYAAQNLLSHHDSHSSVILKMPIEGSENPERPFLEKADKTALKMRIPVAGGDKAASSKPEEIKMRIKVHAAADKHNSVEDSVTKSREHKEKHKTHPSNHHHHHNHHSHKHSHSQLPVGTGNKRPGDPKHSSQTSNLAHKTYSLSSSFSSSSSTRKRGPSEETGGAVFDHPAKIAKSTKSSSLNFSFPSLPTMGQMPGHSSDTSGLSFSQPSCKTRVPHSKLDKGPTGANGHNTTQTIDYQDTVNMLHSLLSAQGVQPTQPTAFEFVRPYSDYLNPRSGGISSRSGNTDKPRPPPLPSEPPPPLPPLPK

Chain of CDK7 CyclinH (P50613 whole entry): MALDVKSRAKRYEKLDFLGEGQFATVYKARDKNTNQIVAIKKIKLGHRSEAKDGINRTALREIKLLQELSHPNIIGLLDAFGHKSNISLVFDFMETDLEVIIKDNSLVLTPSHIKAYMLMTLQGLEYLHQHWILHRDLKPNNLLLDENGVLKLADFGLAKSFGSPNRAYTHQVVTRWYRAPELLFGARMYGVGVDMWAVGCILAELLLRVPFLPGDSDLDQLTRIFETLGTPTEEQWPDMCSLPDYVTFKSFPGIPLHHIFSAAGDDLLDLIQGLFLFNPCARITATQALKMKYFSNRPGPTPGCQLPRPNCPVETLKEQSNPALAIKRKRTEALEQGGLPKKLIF
Chain of CDK7 CyclinH (P51946 whole entry partner): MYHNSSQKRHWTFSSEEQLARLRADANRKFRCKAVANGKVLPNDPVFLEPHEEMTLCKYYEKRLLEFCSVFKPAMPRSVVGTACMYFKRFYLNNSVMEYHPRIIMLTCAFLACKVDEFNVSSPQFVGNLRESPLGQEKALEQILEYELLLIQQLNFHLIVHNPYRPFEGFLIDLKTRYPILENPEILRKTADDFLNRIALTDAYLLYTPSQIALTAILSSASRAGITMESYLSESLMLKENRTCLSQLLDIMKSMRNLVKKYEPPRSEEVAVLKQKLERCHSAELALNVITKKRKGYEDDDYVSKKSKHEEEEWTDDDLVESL
Chain of CDK7 CyclinH (P51948 whole entry partner): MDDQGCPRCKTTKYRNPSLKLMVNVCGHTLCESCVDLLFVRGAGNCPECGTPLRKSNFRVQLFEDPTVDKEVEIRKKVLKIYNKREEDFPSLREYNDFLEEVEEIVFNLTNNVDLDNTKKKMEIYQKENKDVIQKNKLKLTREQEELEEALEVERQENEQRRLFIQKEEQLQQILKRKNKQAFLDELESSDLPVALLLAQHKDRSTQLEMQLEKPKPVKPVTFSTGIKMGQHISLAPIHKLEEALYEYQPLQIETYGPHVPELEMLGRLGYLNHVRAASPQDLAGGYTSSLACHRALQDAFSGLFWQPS

Row | IC50 (CDK7 CyclinH; Table 3a) | IC50 (CDK7 CyclinH; Table 3b) | IC50 (CDK2-CYCLINA; Table 3a) | IC50 (CDK2-CYCLINA; Table 3b) | IC50 (CDK4-CYCLIND1; Table 3a) | IC50 (CDK4-CYCLIND1; Table 3b) | IC50 (CDK1/B; Table 3a) | IC50 (CDK1/B; Table 3b) | IC50 (CDK9-CYCLINT1) | Structure (SMILES)
1 | > 10 µM | > 10 µM | > 10 µM | > 10 µM | 0.103 µM | 0.103 µM | 8.52 µM | 8.52 µM | 0.0628 µM | CN1CCN(c2ccc(Nc3ncc4c(n3)N(C3CCCC3)C3(CCNC3=O)C4)cn2)CC1 (stereo not drawn) [Compound C129, 7′-cyclopentyl-2′-((6-(4-methylpiperazin-1-yl)pyridin-3-yl)amino)-5′,7′-dihydrospiro[pyrrolidine-3,6′-pyrrolo[2,3-d]pyrimidin]-2-one]
2 | > 10 µM | > 10 µM | > 10 µM | > 10 µM | 0.202 µM | 0.202 µM | > 10 µM | > 10 µM | 0.125 µM | O=C1NCCC12Cc1cnc(Nc3ccc(N4CCC(N5CCOCC5)CC4)nc3)nc1N2C1CCCC1 (stereo not drawn) [Compound C133, 7′-cyclopentyl-2′-((6-(4-morpholinopiperidin-1-yl)pyridin-3-yl)amino)-5′,7′-dihydrospiro[pyrrolidine-3,6′-pyrrolo[2,3-d]pyrimidin]-2-one]
3 | > 10 µM | > 10 µM | > 10 µM | > 10 µM | 0.167 µM | 0.167 µM | > 10 µM | > 10 µM | 0.117 µM | CN1CCC(c2ccc(Nc3ncc4c(n3)N(C3CCCC3)C3(CCNC3=O)C4)cc2)CC1 (stereo not drawn) [Compound C164, 7′-cyclopentyl-2′-((4-(1-methylpiperidin-4-yl)phenyl)amino)-5′,7′-dihydrospiro[pyrrolidine-3,6′-pyrrolo[2,3-d]pyrimidin]-2-one]
4 | > 10 µM | > 10 µM | > 10 µM | > 10 µM | 0.702 µM | 0.702 µM | > 10 µM | > 10 µM | 0.0914 µM | O=C1NCCC12Cc1cnc(Nc3ccc(OCCN4CCOCC4)cc3)nc1N2C1CCCC1 (stereo not drawn) [Compound C165, 7′-cyclopentyl-2′-((4-(2-morpholinoethoxy)phenyl)amino)-5′,7′-dihydrospiro[pyrrolidine-3,6′-pyrrolo[2,3-d]pyrimidin]-2-one]
5 | > 10 µM | > 10 µM | > 10 µM | > 10 µM | 1.31 µM | 1.31 µM | > 10 µM | > 10 µM | 0.0231 µM | Cn1cc(-c2ccc(Nc3ncc4c(n3)N(C3CCCC3)C3(CCNC3=O)C4)cc2)cn1 (stereo not drawn) [Compound C168, 7′-cyclopentyl-2′-((4-(1-methyl-1H-pyrazol-4-yl)phenyl)amino)-5′,7′-dihydrospiro[pyrrolidine-3,6′-pyrrolo[2,3-d]pyrimidin]-2-one]
6 | > 10 µM | > 10 µM | > 10 µM | > 10 µM | 0.233 µM | 0.233 µM | > 10 µM | > 10 µM | 0.0282 µM | O=C1NCCC12Cc1cnc(Nc3ccc(OCCN4CCCC4)nc3)nc1N2C1CCCC1 (stereo not drawn) [Compound C170, 7′-cyclopentyl-2′-((6-(2-(pyrrolidin-1-yl)ethoxy)pyridin-3-yl)amino)-5′,7′-dihydrospiro[pyrrolidine-3,6′-pyrrolo[2,3-d]pyrimidin]-2-one]
7 | > 10 µM | > 10 µM | 5.01 µM | 5.01 µM | 1.38 µM | 1.38 µM | > 10 µM | > 10 µM | 0.153 µM | CC(C)c1ccc(Nc2ncc3c(n2)N(C2CCCC2)C2(CCNC2=O)C3)cc1 (stereo not drawn) [Compound C209, 7′-cyclopentyl-2′-((4-isopropylphenyl)amino)-5′,7′-dihydrospiro[pyrrolidine-3,6′-pyrrolo[2,3-d]pyrimidin]-2-one]

Continued, compound first:

Row | Structure (SMILES) | IC50 (CDK7 CyclinH; Table 3a) | IC50 (CDK7 CyclinH; Table 3b) | IC50 (CDK2-CYCLINA; Table 3a) | IC50 (CDK2-CYCLINA; Table 3b) | IC50 (CDK4-CYCLIND1; Table 3a) | IC50 (CDK4-CYCLIND1; Table 3b) | IC50 (CDK1/B; Table 3a) | IC50 (CDK1/B; Table 3b) | IC50 (CDK9-CYCLINT1)
8 | O=C1NCCC12Cc1cnc(Nc3ccc(N4CCC(N5CCOCC5)CC4)cc3)nc1N2C1CCCC1 (stereo not drawn) [Compound C131, 7′-cyclopentyl-2′-((4-(4-morpholinopiperidin-1-yl)phenyl)amino)-5′,7′-dihydrospiro[pyrrolidine-3,6′-pyrrolo[2,3-d]pyrimidin]-2-one] | > 10 µM | > 10 µM | > 10 µM | > 10 µM | 0.273 µM | 0.273 µM | > 10 µM | > 10 µM | 0.298 µM
9 | O=C1NCCC12Cc1cnc(Nc3ccc(N4CCC(N5CCOCC5)CC4)c(F)c3)nc1N2C1CCCC1 (stereo not drawn) [Compound C132, 7′-cyclopentyl-2′-((3-fluoro-4-(4-morpholinopiperidin-1-yl)phenyl)amino)-5′,7′-dihydrospiro[pyrrolidine-3,6′-pyrrolo[2,3-d]pyrimidin]-2-one] | > 10 µM | > 10 µM | 9.66 µM | 9.66 µM | 0.0561 µM | 0.0561 µM | 6.93 µM | 6.93 µM | 0.0402 µM
10 | CN1CC2(C1)CN(c1ccc(Nc3ncc4c(n3)N(C3CCCC3)C3(CC(=O)NC3=O)C4)cc1F)C2 (stereo not drawn) [Compound C149, 7′-cyclopentyl-2′-((3-fluoro-4-(6-methyl-2,6-diazaspiro[3.3]heptan-2-yl)phenyl)amino)-5′,7′-dihydrospiro[pyrrolidine-3,6′-pyrrolo[2,3-d]pyrimidine]-2,5-dione] | > 10 µM | > 10 µM | > 10 µM | > 10 µM | 0.593 µM | 0.593 µM | > 10 µM | > 10 µM | 0.0852 µM
11 | CC(C)N1CC2(CN(c3ccc(Nc4ncc5c(n4)N(C4CCCC4)C4(CC(=O)NC4=O)C5)cc3)C2)C1 (stereo not drawn) [Compound C150, 7′-cyclopentyl-2′-((4-(6-isopropyl-2,6-diazaspiro[3.3]heptan-2-yl)phenyl)amino)-5′,7′-dihydrospiro[pyrrolidine-3,6′-pyrrolo[2,3-d]pyrimidine]-2,5-dione] | > 10 µM | > 10 µM | > 10 µM | > 10 µM | 0.522 µM | 0.522 µM | > 10 µM | > 10 µM | 0.27 µM
12 | CN(C)[C@H]1CCN(c2ccc(Nc3ncc4c(n3)N(C3CCCC3)C3(CCNC3=O)C4)cc2F)C1 (stereo partly drawn) [Compound C173, 7′-cyclopentyl-2′-((4-((S)-3-(dimethylamino)pyrrolidin-1-yl)-3-fluorophenyl)amino)-5′,7′-dihydrospiro[pyrrolidine-3,6′-pyrrolo[2,3-d]pyrimidin]-2-one] | > 10 µM | > 10 µM | > 10 µM | > 10 µM | 0.109 µM | 0.109 µM | 8.41 µM | 8.41 µM | 0.0336 µM
13 | CN(C)[C@@H]1CCN(c2ccc(Nc3ncc4c(n3)N(C3CCCC3)C3(CCNC3=O)C4)cc2F)C1 (stereo partly drawn) [Compound C176, 7′-cyclopentyl-2′-((4-((R)-3-(dimethylamino)pyrrolidin-1-yl)-3-fluorophenyl)amino)-5′,7′-dihydrospiro[pyrrolidine-3,6′-pyrrolo[2,3-d]pyrimidin]-2-one] | > 10 µM | > 10 µM | > 10 µM | > 10 µM | 0.142 µM | 0.142 µM | 7.58 µM | 7.58 µM | 0.027 µM
14 | CN(C)[C@H]1CCN(C(=O)c2ccc(Nc3ncc4c(n3)N(C3CCCC3)C3(CCNC3=O)C4)cc2)C1 (stereo partly drawn) [Compound C178, 7′-cyclopentyl-2′-((4-((S)-3-(dimethylamino)pyrrolidine-1-carbonyl)phenyl)amino)-5′,7′-dihydrospiro[pyrrolidine-3,6′-pyrrolo[2,3-d]pyrimidin]-2-one] | > 10 µM | > 10 µM | 0.681 µM | 0.681 µM | 0.0453 µM | 0.0453 µM | 1.05 µM | 1.05 µM | 0.00865 µM
15 | CN(C)[C@@H]1CCN(C(=O)c2ccc(Nc3ncc4c(n3)N(C3CCCC3)C3(CCNC3=O)C4)cc2)C1 (stereo partly drawn) [Compound C181, 7′-cyclopentyl-2′-((4-((R)-3-(dimethylamino)pyrrolidine-1-carbonyl)phenyl)amino)-5′,7′-dihydrospiro[pyrrolidine-3,6′-pyrrolo[2,3-d]pyrimidin]-2-one] | > 10 µM | > 10 µM | 1.94 µM | 1.94 µM | 0.0679 µM | 0.0679 µM | 3.55 µM | 3.55 µM | 0.0602 µM
16 | CC1CN(c2ccc(Nc3ncc4c(n3)N(C3CCCC3)C3(CCNC3=O)C4)cc2)CC(C)N1 (stereo not drawn) [Compound C207, 7′-cyclopentyl-2′-((4-(3,5-dimethylpiperazin-1-yl)phenyl)amino)-5′,7′-dihydrospiro[pyrrolidine-3,6′-pyrrolo[2,3-d]pyrimidin]-2-one] | > 10 µM | > 10 µM | 9.57 µM | 9.57 µM | 0.341 µM | 0.341 µM | > 10 µM | > 10 µM | 0.148 µM
17 | CC1CN(c2ccc(Nc3ncc4c(n3)N(C3CCCC3)C3(CC(=O)NC3=O)C4)cc2)CC(C)N1 (stereo not drawn) [Compound C208, 7′-cyclopentyl-2′-((4-(3,5-dimethylpiperazin-1-yl)phenyl)amino)-5′,7′-dihydrospiro[pyrrolidine-3,6′-pyrrolo[2,3-d]pyrimidine]-2,5-dione] | > 10 µM | > 10 µM | 2.28 µM | 2.28 µM | 0.0668 µM | 0.0668 µM | 2.02 µM | 2.02 µM | 0.0799 µM
